Assay results: the NIST ThermoML archive (doi:10.1021/je1001329)

Experiments:
[1] = 298.15 K, Ring tensiometer
[2] = xn = mol fraction of the nth substance listed; details: 298.15 K, Ring tensiometer

CC#N [acetonitrile]
Details | surface tension liquid-gas [mN/m]
[1] | 27.76

CC#N [acetonitrile] + CC(C)O
[2]
Details | surface tension liquid-gas [mN/m]
x1 = 0.2001 | 21.05
x1 = 0.3621 | 21.55
x1 = 0.4885 | 22.15
x1 = 0.5398 | 22.44
x1 = 0.6001 | 22.88
x1 = 0.7 | 23.84
x1 = 0.8001 | 24.94
x1 = 0.8984 | 26.23
x1 = 0.9579 | 27.1
x1 = 0.9701 | 27.28
x1 = 0.9851 | 27.55

CC#N [acetonitrile] + O
[2]
Details | surface tension liquid-gas [mN/m]
x2 = 0.2032 | 29.46
x2 = 0.4087 | 30.95
x2 = 0.5149 | 31.45
x2 = 0.6041 | 31.68
x2 = 0.7459 | 32.92
x2 = 0.8145 | 33.97
x2 = 0.8773 | 37.97
x2 = 0.8977 | 39.63
x2 = 0.905 | 40.54
x2 = 0.9484 | 49.39
x2 = 0.9702 | 55.92
x2 = 0.9851 | 62.36

CC(C)O [propan-2-ol]
Details | surface tension liquid-gas [mN/m]
[1] | 20.95

CC(C)O [propan-2-ol] + O
[2]
Details | surface tension liquid-gas [mN/m]
x2 = 0.099 | 21.65
x2 = 0.2949 | 21.97
x2 = 0.5018 | 22.28
x2 = 0.5993 | 22.74
x2 = 0.7021 | 23.28
x2 = 0.8 | 24.37
x2 = 0.8502 | 25.04
x2 = 0.8991 | 26.64
x2 = 0.945 | 32.36
x2 = 0.9598 | 35.83
x2 = 0.9697 | 39.36

O [water]
Details | surface tension liquid-gas [mN/m]
[1] | 72.09
